Test results reported in the Deep4Chem optical property database.

Experiment: photoluminescence quantum yield (fraction); solvent given as SMILES

## COc1ccc(C2=[N+]3C(=Nc4c(-c5cc(OC)c(OC)c(OC)c5)c(-c5ccc(C(C)(C)C)cc5)c(-c5ccc(OC)cc5)n4[B-]3(F)F)C(c3cc(OC)c(OC)c(OC)c3)=C2c2ccc(C(C)(C)C)cc2)cc1
In Cc1ccccc1
  photoluminescence quantum yield: 0.04

## CC(C)(C)c1ccc2c(c1)c1cc(C(C)(C)C)ccc1n2-c1ccc(-c2ccc3c(c2)C(=O)c2ccc(-c4ccc(-n5c6ccc(C(C)(C)C)cc6c6cc(C(C)(C)C)ccc65)cc4)cc2C3=O)cc1
In Cc1ccccc1
  photoluminescence quantum yield: 0.6
In c1ccc2c(c1)c1ccccc1n2-c1ccc(-c2ccc(-n3c4ccccc4c4ccccc43)cc2)cc1
  photoluminescence quantum yield: 0.65

## CN(C)c1ccc(/C=C/c2ncc3ccccc3n2)cc1
In CC#N
  photoluminescence quantum yield: 0.06
In ClCCl
  photoluminescence quantum yield: 0.21

## CCCCCCCCCCCCOc1cc2c3c(ccc4c5c(SCCCCCCCCCCCC)cc6c7c(ccc(c1c34)c75)C(=O)N(C1CCCCC1)C6=O)C(=O)N(C1CCCCC1)C2=O
In ClC(Cl)Cl
  photoluminescence quantum yield: 0.39

## CCn1c(-c2ccc(-c3ccc4ccc5cccc6ccc3c4c56)cc2)c(-c2ccc3ccccc3c2)c(-c2ccc3ccccc3c2)c1-c1ccc(-c2ccc3ccc4cccc5ccc2c3c45)cc1
In CCOC(C)=O
  photoluminescence quantum yield: 0.99

## CC(C)(C)c1cc(-c2ccc(-c3cccs3)s2)c2c(c1)c1cc(C(C)(C)C)cc(-c3ccc(-c4cccs4)s3)c1n2-c1ccc(-c2cccs2)s1
In ClCCl
  photoluminescence quantum yield: 0.092

## CCCCCCCCCCCCOc1ccc(C2=C3C(=O)N(CC(OCC)OCC)C(c4ccc(OCCCCCCCCCCCC)c(OCCCCCCCCCCCC)c4)=C3C(=O)N2CC(OCC)OCC)cc1OCCCCCCCCCCCC
In ClC(Cl)Cl
  photoluminescence quantum yield: 0.9

## N#Cc1c(C#N)c2cc(Br)ccc2c2ccc(Br)cc12
In ClC(Cl)Cl
  photoluminescence quantum yield: 0.01

## CCCCn1c(-c2ccc(-c3ccc(-c4ccc(-c5n(CCCC)c6cc(C)ccc6[n+]5CCCC)cc4)cc3)cc2)[n+](CCCC)c2ccc(C)cc21
In O
  photoluminescence quantum yield: 0.78

## CCCCCCCCCCCCC(CCCCCCCCCC)Cn1c2cc(C=C(C#N)C#N)c3cccc4c5cccc6c(C=C(C#N)C#N)cc1c(c65)c2c34 (stereo unspecified)
In C1CCCCC1
  photoluminescence quantum yield: 0.13
In CC#N
  photoluminescence quantum yield: 0.151
In Cc1ccccc1
  photoluminescence quantum yield: 0.138
In ClCCl
  photoluminescence quantum yield: 0.115

## Oc1ccccc1C1=NC2c3cccc4cccc(c34)C2N1c1ccccc1 (stereo unspecified)
In Cc1ccccc1
  photoluminescence quantum yield: 0.009

## C(=C(c1ccccc1)c1ccccc1)c1ccc(-c2ccc(-c3nc4c5ccccc5c5ccccc5c4n3-c3cccc(-c4ccc(C=C(c5ccccc5)c5ccccc5)cc4)c3)cc2)cc1
In C1CCOC1
  photoluminescence quantum yield: 0.145

## CC(C)(C)c1ccc2c(c1)c1cc(C(C)(C)C)ccc1n2-c1cccc(-c2nc(-c3cccc(P(=O)(c4ccccc4)c4ccccc4)c3)nc(-c3cccc(P(=O)(c4ccccc4)c4ccccc4)c3)n2)c1
In O=P(c1ccccc1)(c1ccccc1)c1ccccc1Oc1ccccc1P(=O)(c1ccccc1)c1ccccc1
  photoluminescence quantum yield: 0.72

## CCCCCCc1ccc2c3c(ccc2c1)O[B-](F)(F)[N+](c1cc([N+]2=Cc4c(ccc5cc(CCCCCC)ccc45)O[B-]2(F)F)cc([N+]2=Cc4c(ccc5cc(CCCCCC)ccc45)O[B-]2(F)F)c1)=C3
In C1CCOC1
  photoluminescence quantum yield: 0.26
In CC#N
  photoluminescence quantum yield: 0.18
In Cc1ccccc1
  photoluminescence quantum yield: 0.48
In ClCCl
  photoluminescence quantum yield: 0.44

## COc1ccc(-c2nc(-c3ccccc3)c(N(C)C)[se]2)cc1
In ClC(Cl)Cl
  photoluminescence quantum yield: 0.039

## CC(C)(C)OC(=O)n1ccc2c3ccc4cccc5ccc(cc21)c3c54
In CCOC(C)=O
  photoluminescence quantum yield: 0.27

## c1ccc(-c2nc(-c3ccccc3)nc(-c3cc(-n4c5ccccc5c5ncccc54)c(-n4c5ccccc5c5ncccc54)c(-n4c5ccccc5c5ncccc54)c3)n2)cc1
In O=P(c1ccccc1)(c1ccccc1)c1ccc2oc3ccc(P(=O)(c4ccccc4)c4ccccc4)cc3c2c1
  photoluminescence quantum yield: 0.54

## COc1ccc(-c2ccc(-c3c4c(nc5ccccc35)-c3cc5c(cc3CC4)-c3nc4ccccc4c(-c4ccc(-c6ccc(OC)cc6)cc4)c3CC5)cc2)cc1
In ClC(Cl)Cl
  photoluminescence quantum yield: 0.827

## CCOC(=O)c1c2c3c(ccc(Cl)c3c3cc4ccccc4cc13)N(C)C2=O
In CC#N
  photoluminescence quantum yield: 0.41

## CC(C)CCC[C@@H](C)[C@H]1CC[C@H]2[C@@H]3CC=C4C[C@@H](OC(=O)Oc5cc(/C=C/c6ccc(N(C)C)cc6)ccc5[N+](=O)[O-])CC[C@]4(C)[C@H]3CC[C@]12C
In C1CCCCC1
  photoluminescence quantum yield: 0.29
In C1COCCO1
  photoluminescence quantum yield: 0.09
In CCCCCCC
  photoluminescence quantum yield: 0.29
In Cc1ccccc1
  photoluminescence quantum yield: 0.18

## N#Cc1c(C#N)c(-n2c3ccccc3c3ccccc32)c(-n2c3ccccc3c3ccccc32)c(-n2c3ccccc3c3ccccc32)c1-n1c2ccccc2c2ccccc21
In Cc1ccccc1
  photoluminescence quantum yield: 0.744

## O=C1NC(=O)/C(=C\c2ccccc2O)S1
In C1CCCCC1
  photoluminescence quantum yield: 0.02
In C1COCCO1
  photoluminescence quantum yield: 0.031
In CC#N
  photoluminescence quantum yield: 0.025
In CN(C)C=O
  photoluminescence quantum yield: 0.064
In CO
  photoluminescence quantum yield: 0.02
In O
  photoluminescence quantum yield: 0.011
In OCC(O)CO
  photoluminescence quantum yield: 0.632
In OCCO
  photoluminescence quantum yield: 0.115

## CCOC(=O)COc1ccc(/C=C/c2cc(C)c3n2[B-](F)(F)[N+]2=C(c4[nH]c(C)cc4C)c4ccccc4C2=C3)cc1
In C1CCOC1
  photoluminescence quantum yield: 0.34
In CC#N
  photoluminescence quantum yield: 0.3
In CCCCCC
  photoluminescence quantum yield: 0.73
In CO
  photoluminescence quantum yield: 0.08
In Cc1ccccc1
  photoluminescence quantum yield: 0.69
In ClCCl
  photoluminescence quantum yield: 0.75

## O=C1c2ccccc2C(=O)C1C1C(=O)c2c3ccccc3cc3cc4ccccc4c1c23 (stereo unspecified)
In C1CCOC1
  photoluminescence quantum yield: 0.294
In CC#N
  photoluminescence quantum yield: 0.139
In CCCCCC
  photoluminescence quantum yield: 0.339
In Cc1ccccc1
  photoluminescence quantum yield: 0.356
In ClCCl
  photoluminescence quantum yield: 0.247
